Measured values as given in ChEMBL document CHEMBL5214933, “Discovery of Selenium-Containing STING Agonists as Orally Available Antitumor Agents” (J Med Chem, 2022).
Converted amounts (≈) assume the structure as drawn. The source made the active and inactive calls. No cut-off for these calls is given here.

Columns and labels:
[1] = target: T1, Stimulator of interferon genes protein (Homo sapiens, UniProt Q86WV6); experiment: Binding affinity to recombinant human STING H232 variant expressed in Escherichia coli BL21 (DE3) assessed as dissociation constant by multicycle SPR analysis
Target sequence in this assay (Q86WV6 whole entry, looked up, stated change not applied): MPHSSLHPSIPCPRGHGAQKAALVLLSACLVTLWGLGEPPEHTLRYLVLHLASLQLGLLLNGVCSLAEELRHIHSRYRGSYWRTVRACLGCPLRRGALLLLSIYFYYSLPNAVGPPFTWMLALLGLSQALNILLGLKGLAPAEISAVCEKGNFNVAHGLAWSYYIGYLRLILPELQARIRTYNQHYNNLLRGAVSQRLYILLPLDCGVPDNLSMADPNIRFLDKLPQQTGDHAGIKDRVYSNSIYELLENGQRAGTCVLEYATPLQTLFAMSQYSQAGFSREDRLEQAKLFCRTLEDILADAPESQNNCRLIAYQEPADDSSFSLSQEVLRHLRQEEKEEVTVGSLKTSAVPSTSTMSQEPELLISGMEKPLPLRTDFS

[2] = Oral bioavailability in Sprague-Dawley rat at 50 mg/kg measured for 1440 mins by LC-MS/MS analysis; assay type: ADME, organism-based; conditions: in vivo
[3] = target: T1, Stimulator of interferon genes protein; experiment: Agonist activity at STING in cGAS knockout human THP-1 cells harboring IRF-inducible luciferase reporter construct assessed as increase in relative fluorescence unit incubated for 12 hrs by Quanti-luc reagent based assay; assay type: cell-based
Target sequence in this assay (Q86WV6 whole entry): as the sequence (Q86WV6 whole entry, looked up, stated change not applied) above

[4] = AUC (0 to infinity) in Sprague-Dawley rat at 5 mg/kg, iv measured for 1440 mins by LC-MS/MS analysis; assay type: ADME, organism-based; design: dose 5 mg/kg, time 1440 min, route iv; conditions: in vivo
MC-38 = experiment: Antitumor activity against mouse MC38 cells implanted in C57BL/6 mouse assessed as tumor growth regression at 30 mg/kg, po administered once every 3 days and measured after 21 days by digital caliper analysis relative to control; assay type: functional; conditions: time 21 day
[5] = Clearance in Sprague-Dawley rat at 5 mg/kg, iv measured for 1440 mins by LC-MS/MS analysis; assay type: ADME, organism-based; conditions: in vivo
[6] = Half life in Sprague-Dawley rat at 5 mg/kg, iv measured for 1440 mins by LC-MS/MS analysis; assay type: ADME, organism-based; conditions: in vivo
[7] = target: T1, Stimulator of interferon genes protein; experiment: Agonist activity at STING in human THP-1 cells assessed as increase in IFNbeta mRNA expression at 10 uM measured after 3 hrs by qRT-PCR analysis; assay type: cell-based; conditions: filed as agonist
Target sequence in this assay (Q86WV6 whole entry): as the sequence (Q86WV6 whole entry, looked up, stated change not applied) above

[8] = Stability in rat plasma assessed as interconversion into (S)-4-(5,6-Dimethoxybenzo[b]selenophen-2-yl)-2-ethyl-4-oxobutanoic acid incubated for 24 hrs by normal-phase HPLC analysis; assay type: ADME, cell-free
[9] = target: T1, Stimulator of interferon genes protein; experiment: Agonist activity at STING in human THP-1 cells assessed as increase in CXCL10 mRNA expression at 10 uM measured after 3 hrs by qRT-PCR analysis; assay type: cell-based; conditions: filed as agonist
Target sequence in this assay (Q86WV6 whole entry): as the sequence (Q86WV6 whole entry, looked up, stated change not applied) above

[10] = target: T2, Stimulator of interferon genes protein (Mus musculus) (UniProt Q3TBT3); experiment: Agonist activity at STING in mouse RAW264.7 cells harboring IRF-inducible luciferase reporter construct assessed as increase in […] mRNA expression at 10 to 50 uM measured after 1 hr by qRT-PCR analysis; assay type: cell-based; conditions: filed as agonist, dose 10-50 µM
T2 sequence (whole entry): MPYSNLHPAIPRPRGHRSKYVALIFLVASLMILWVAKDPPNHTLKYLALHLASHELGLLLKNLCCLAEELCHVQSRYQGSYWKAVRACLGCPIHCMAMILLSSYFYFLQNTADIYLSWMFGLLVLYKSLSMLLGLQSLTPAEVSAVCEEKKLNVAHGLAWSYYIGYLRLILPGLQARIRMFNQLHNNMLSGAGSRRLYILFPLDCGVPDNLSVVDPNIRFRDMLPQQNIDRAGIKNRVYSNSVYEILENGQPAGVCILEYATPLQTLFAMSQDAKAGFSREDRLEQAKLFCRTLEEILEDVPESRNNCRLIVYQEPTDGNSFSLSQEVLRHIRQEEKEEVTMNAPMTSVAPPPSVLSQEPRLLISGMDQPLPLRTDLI

[11] = target: T2, Stimulator of interferon genes protein (Mus musculus); experiment: Agonist activity at STING in mouse MEF cells assessed as increase in CXCL10 mRNA expression at 10 uM measured after 3 hrs by qRT-PCR analysis; assay type: cell-based; conditions: filed as agonist
[12] = Aqueous solubility of compound at 3 mg incubated for 24 hrs under shaking condition by RP-HPLC analysis; assay type: physicochemical; conditions: water
[13] = Stability in human plasma assessed as interconversion into (S)-4-(5,6-Dimethoxybenzo[b]selenophen-2-yl)-2-ethyl-4-oxobutanoic acid incubated for 24 hrs by normal-phase HPLC analysis; assay type: ADME, cell-free
[14] = AUC (0 to infinity) in Sprague-Dawley rat at 50 mg/kg, po measured for 1440 mins by LC-MS/MS analysis; assay type: ADME, organism-based; design: time 1440 min, dose 50 mg/kg, route po; conditions: in vivo
[15] = Half life in Sprague-Dawley rat at 50 mg/kg, po measured for 1440 mins by LC-MS/MS analysis; assay type: ADME, organism-based; conditions: in vivo
[16] = Stability in human plasma assessed as parent compound remaining at 1 uM incubated for 24 hrs in presence of NADPH by LC-MS/MS analysis; assay type: ADME, cell-free; conditions: read-out: Stability
Mus musculus [17] = experiment: Immunostimulatory activity in naive […] mouse implanted with mouse MC38 cells assessed as increase in CD69-positive NK cells in spleen at 30 mg/kg, po by FACS analysis (reference value: 4.7%); assay type: functional, MC-38
[18] = Clearance in Sprague-Dawley rat at 50 mg/kg, po measured for 1440 mins by LC-MS/MS analysis; assay type: ADME, organism-based; conditions: in vivo
Mus musculus [19] = experiment: Immunostimulatory activity in naive […] mouse implanted with mouse MC38 cells assessed as increase in CD8 T cells in spleen at 30 mg/kg, po by FACS analysis; assay type: functional, organism-based; conditions: MC-38
[20] = Lipophilicity, logP of compound by RP-HPLC analysis; assay type: physicochemical
hERG = hERG (Homo sapiens, UniProt Q12809); experiment: Inhibition of hERG expressed in HEK293 cells at 10 uM incubated for 5 mins by QPatch automated patch-clamp technique relative to control; assay type: toxicity, cell-based; conditions: HEK293 cells that express hERG
Sequence of hERG (Q12809 whole entry): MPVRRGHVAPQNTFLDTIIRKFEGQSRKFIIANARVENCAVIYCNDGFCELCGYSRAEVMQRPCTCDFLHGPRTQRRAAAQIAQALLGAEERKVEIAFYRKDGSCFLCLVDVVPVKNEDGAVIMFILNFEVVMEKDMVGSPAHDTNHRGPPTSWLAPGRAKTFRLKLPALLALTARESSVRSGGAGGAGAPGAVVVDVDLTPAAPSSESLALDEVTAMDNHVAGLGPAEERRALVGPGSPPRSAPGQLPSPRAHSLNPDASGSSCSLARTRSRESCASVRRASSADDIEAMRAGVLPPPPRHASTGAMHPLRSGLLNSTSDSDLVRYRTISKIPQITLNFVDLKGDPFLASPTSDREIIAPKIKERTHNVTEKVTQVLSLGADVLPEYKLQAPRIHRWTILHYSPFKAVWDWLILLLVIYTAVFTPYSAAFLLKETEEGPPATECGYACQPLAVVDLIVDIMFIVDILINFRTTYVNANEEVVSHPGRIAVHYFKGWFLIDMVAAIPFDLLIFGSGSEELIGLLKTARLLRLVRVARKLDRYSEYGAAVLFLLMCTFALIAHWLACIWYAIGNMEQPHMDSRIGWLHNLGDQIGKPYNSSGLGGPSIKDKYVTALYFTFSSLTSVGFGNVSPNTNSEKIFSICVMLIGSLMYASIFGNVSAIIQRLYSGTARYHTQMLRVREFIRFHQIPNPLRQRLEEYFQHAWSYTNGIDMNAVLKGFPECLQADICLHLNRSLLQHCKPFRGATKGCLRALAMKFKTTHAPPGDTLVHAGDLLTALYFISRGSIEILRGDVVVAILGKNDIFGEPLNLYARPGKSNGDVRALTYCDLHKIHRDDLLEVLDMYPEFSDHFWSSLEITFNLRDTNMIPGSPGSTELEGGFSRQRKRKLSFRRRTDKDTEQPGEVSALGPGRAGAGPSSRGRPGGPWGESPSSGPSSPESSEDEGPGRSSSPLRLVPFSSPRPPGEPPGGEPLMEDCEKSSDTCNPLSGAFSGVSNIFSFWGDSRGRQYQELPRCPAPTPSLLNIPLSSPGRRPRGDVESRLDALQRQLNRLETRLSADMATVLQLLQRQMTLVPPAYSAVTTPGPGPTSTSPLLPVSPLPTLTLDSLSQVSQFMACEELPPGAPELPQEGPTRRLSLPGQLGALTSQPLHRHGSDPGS

[21] = Volume of distribution at steady state in Sprague-Dawley rat at 50 mg/kg, po measured for 1440 mins by LC-MS/MS analysis; assay type: ADME, organism-based; conditions: in vivo, 24 h
[22] = Volume of distribution at steady state in Sprague-Dawley rat at 5 mg/kg, iv measured for 1440 mins by LC-MS/MS analysis; assay type: ADME, organism-based; conditions: in vivo, read-out: Vdss
[23] = target: T3, Stimulator of interferon genes protein (Mus musculus, UniProt Q3TBT3); experiment: Agonist activity at STING in mouse RAW264.7 cells harboring IRF-inducible luciferase reporter construct assessed as increase in relative fluorescence unit incubated for 12 hrs by Quanti-luc reagent based assay; assay type: cell-based
T3 sequence (Q3TBT3 whole entry): T2 sequence (whole entry)

[24] = target: T1, Stimulator of interferon genes protein; experiment: Agonist activity at STING in human THP-1 cells harboring IRF-inducible luciferase reporter construct assessed as increase in relative fluorescence unit incubated for 12 hrs by Quanti-luc reagent based assay; assay type: cell-based
Target sequence in this assay (Q86WV6 whole entry): as the sequence (Q86WV6 whole entry, looked up, stated change not applied) above

[25] = Protein binding in plasma (unknown origin) assessed as unbound fraction at 2 uM incubated for 4 hrs under shaking condition by rapid equilibrium dialysis method; assay type: ADME, cell-free
Mus musculus [26] = experiment: Immunostimulatory activity in naive […] mouse implanted with mouse MC38 cells assessed as increase in NKT cells in spleen at 30 mg/kg, po by FACS analysis; assay type: functional, organism-based; conditions: MC-38
[27] = target: T1, Stimulator of interferon genes protein; experiment: Agonist activity at STING in human THP-1 cells harboring IRF-inducible luciferase reporter construct assessed as increase in IRF3 phosphorylation at 50 uM measured after 3 hrs by Western blot analysis; assay type: cell-based; conditions: filed as agonist
Target sequence in this assay (Q86WV6 whole entry): as the sequence (Q86WV6 whole entry, looked up, stated change not applied) above

Mus musculus [28] = experiment: Immunostimulatory activity in naive […] mouse implanted with mouse MC38 cells assessed as increase in T cells in spleen at 30 mg/kg, po by FACS analysis; assay type: functional, organism-based; conditions: MC-38
Mus musculus [29] = experiment: Immunostimulatory activity in naive […] mouse implanted with mouse MC38 cells assessed as increase in NK cells in spleen at 30 mg/kg, po by FACS analysis; assay type: functional, organism-based; conditions: MC-38

Molecule CC[C@H](CC(=O)c1cc2cc(OC)c(OC)cc2[se]1)C(=O)O has a Kd [1] of 58 µM, a bioavailability [2] of 107% and an EC50 [3] of 5.19 µM. The AUC(0-inf) [4] was 29.4 µg·h/mL, the Activity (MC-38) was 100% and the clearance [5] was 2.83 mL/min/kg. The half-life [6] was 1.04 h, the Activity [7] was “Active” and the Stability [8] was “Stable”. The Activity [9] was “Active”, the Activity [10] was “Active” and the Activity [11] was “Active”. For the same molecule, the solubility thermodynamic at 24 h [12] was 30 µg/mL (≈ 81.2 µM), the Stability [13] was “Stable” and the AUC(0-inf) [14] was 316 µg·h/mL. The half-life [15] was 1.6 h, the remaining at 24 h, 1 µM [16] was 98% and the Activity (Mus musculus [17]) was 46.8%. The CL/F [18] was 2.67 mL/min/kg, the Activity (Mus musculus [19]) was “Active” and the logP [20] was 2.4. It also gave an inhibition at 5 min, 10 µM (hERG) of -0.7%, a Vdss [21] of 0.38 L/kg and a Vd [22] of 0.26 L/kg. The EC50 [23] was 5.71 µM, the EC50 [24] was 9.24 µM and the Fu [25] was 0.07%. The Activity (Mus musculus [26]) was “Active”, the Activity [27] was “Active” and the Activity (Mus musculus [28]) was “Active”. The Activity (Mus musculus [29]) was “Active”.
